Reference: ChEMBL document CHEMBL3046801, “Synthesis of 2-R1-2-(4-(2-fluoroethoxy)benzamido)acetate as potential PET imaging agents” (Med Chem Res, 2012)

Columns and labels:
[1] = tested on: Lung; assay: Biodistribution in tumor bearing Mus musculus KM (mouse) lung at 3.7 MBq, iv by microPET imaging analysis; type: ADME, organism-based; conditions: in vivo, TDE = time-dependent effect
[2] = tested on: Spleen; assay: Biodistribution in tumor bearing Mus musculus KM (mouse) spleen at 3.7 MBq, iv by microPET imaging analysis; type: ADME, organism-based; conditions: in vivo, TDE = time-dependent effect
[3] = tested on: Blood; assay: Biodistribution in tumor bearing Mus musculus KM (mouse) blood at 3.7 MBq, iv measured at 5 min by microPET imaging analysis; type: ADME, organism-based; conditions: in vivo
[4] = tested on: Muscle tissue; assay: Biodistribution in tumor bearing Mus musculus KM (mouse) muscle at 3.7 MBq, iv measured at 60 min by microPET imaging analysis; type: ADME, organism-based; conditions: in vivo, 1 h
[5] = tested on: Muscle tissue; assay: Biodistribution in tumor bearing Mus musculus KM (mouse) muscle at 3.7 MBq, iv measured at 30 min by microPET imaging analysis; type: ADME, organism-based; conditions: in vivo, 0.5 h
[6] = tested on: Muscle tissue; assay: Biodistribution in tumor bearing Mus musculus KM (mouse) muscle at 3.7 MBq, iv measured at 15 min by microPET imaging analysis; type: ADME, organism-based; conditions: in vivo, 0.25 h
[7] = tested on: Muscle tissue; assay: Biodistribution in tumor bearing Mus musculus KM (mouse) muscle at 3.7 MBq, iv measured at 5 min by microPET imaging analysis; type: ADME, organism-based; conditions: in vivo
[8] = tested on: Nucleic Acid; assay: Ratio of drug uptake in tumor to muscle in Mus musculus KM (mouse) at 3.7 MBq, iv at 30 min; type: ADME, organism-based; conditions: in vivo, 0.5 h
[9] = tested on: Tumour; assay: Biodistribution in tumor of Mus musculus KM (mouse) at 3.7 MBq, iv measured at 30 min by microPET imaging analysis; type: ADME, organism-based, Neoplasm; conditions: in vivo, 0.5 h
[10] = tested on: Brain; assay: Biodistribution in tumor bearing Mus musculus KM (mouse) brain at 3.7 MBq, iv measured at 60 min by microPET imaging analysis; type: ADME, organism-based; conditions: in vivo, 1 h
[11] = tested on: Brain; assay: Biodistribution in tumor bearing Mus musculus KM (mouse) brain at 3.7 MBq, iv measured at 15 min by microPET imaging analysis; type: ADME, organism-based; conditions: in vivo, 0.25 h
[12] = tested on: Blood; assay: Biodistribution in tumor bearing Mus musculus KM (mouse) blood at 3.7 MBq, iv measured at 60 min by microPET imaging analysis; type: ADME, organism-based; conditions: in vivo, 1 h
[13] = tested on: Blood; assay: Clearance in tumor-bearing Mus musculus KM (mouse) blood at 3.7 MBq, iv measured at 60 min; type: ADME, organism-based; conditions: in vivo, 1 h
[14] = tested on: Lung; assay: Biodistribution in tumor bearing Mus musculus KM (mouse) lung at 3.7 MBq, iv measured at 120 min by microPET imaging analysis; type: ADME, organism-based; conditions: in vivo, 2 h
[15] = tested on: Lung; assay: Biodistribution in tumor bearing Mus musculus KM (mouse) lung at 3.7 MBq, iv measured at 15 min by microPET imaging analysis; type: ADME, organism-based; conditions: in vivo, 0.25 h
[16] = tested on: Spleen; assay: Biodistribution in tumor bearing Mus musculus KM (mouse) spleen at 3.7 MBq, iv measured at 120 min by microPET imaging analysis; type: ADME, organism-based; conditions: in vivo, 2 h
[17] = tested on: Spleen; assay: Biodistribution in tumor bearing Mus musculus KM (mouse) spleen at 3.7 MBq, iv measured at 60 min by microPET imaging analysis; type: ADME, organism-based; conditions: in vivo, 1 h
[18] = tested on: Spleen; assay: Biodistribution in tumor bearing Mus musculus KM (mouse) spleen at 3.7 MBq, iv measured at 30 min by microPET imaging analysis; type: ADME, organism-based; conditions: in vivo, 0.5 h
[19] = tested on: Spleen; assay: Biodistribution in tumor bearing Mus musculus KM (mouse) spleen at 3.7 MBq, iv measured at 5 min by microPET imaging analysis; type: ADME, organism-based; conditions: in vivo
[20] = tested on: Liver; assay: Biodistribution in tumor bearing Mus musculus KM (mouse) liver at 3.7 MBq, iv measured at 60 min by microPET imaging analysis; type: ADME, organism-based; conditions: in vivo, 1 h
[21] = tested on: Heart; assay: Biodistribution in tumor bearing Mus musculus KM (mouse) heart at 3.7 MBq, iv measured at 15 min by microPET imaging analysis; type: ADME, organism-based; conditions: in vivo, 0.25 h

Drug uptake [1]: tde
Drug uptake [2]: tde
Drug uptake [3]: 4.68 % ID/g
Drug uptake [4]: 0.53 % ID/g
Drug uptake [5]: 0.94 % ID/g
Drug uptake [6]: 1.25 % ID/g
Drug uptake [7]: 2.02 % ID/g
Ratio [8]: 1.82
Drug uptake [9]: 1.71 % ID/g
Drug uptake [10]: 0.55 % ID/g
Drug uptake [11]: 1.26 % ID/g
Drug uptake [12]: 0.98 % ID/g
CL [13]: 96%
Drug uptake [14]: 0.76 % ID/g
Drug uptake [15]: 1.69 % ID/g
Drug uptake [16]: 0.6 % ID/g
Drug uptake [17]: 0.64 % ID/g
Drug uptake [18]: 0.79 % ID/g
Drug uptake [19]: 2.04 % ID/g
Drug uptake [20]: 0.73 % ID/g
Drug uptake [21]: 1.93 % ID/g
SMILES: COC(=O)CNC(=O)c1ccc(OCC[18F])cc1 [[18F]FEBA]
